Values after ≈ are worked out from the molar mass of the structure shown.
Key:
S. aureus^MS [1] = experiment: MIC by broth microdilution (aerobic pathogens), test strain 2; format: cell-based; settings: Staphylococcus aureus
Protocol: (§1) The antibacterial activity of the compounds of Examples 1 to 48 of the present invention against aerobic pathogens were evaluated by measuring the minimum concentration of the antibiotic capable of inhibiting bacterial growth by 90% compared to the growth of the non-drug treated control group. MIC was measured by the broth microdilution method based on CLSI standards [Reference: Clinical and Laboratory Standards Institute Document. (2000) Methods for Dilution Antimicrobial Susceptibility Test for Bacteria that Grow Aerobically-Fifth Edition: M7-A5. CLSI, Villanova, PA].
(§2) All 13 strains such as methicillin susceptible Staphylococcus aureus (MSSA), methicillin resistant Staphylococcus aureus (MRSA), Vancomycin resistant Staphylococcus aureus (VRSA), Staphylococcus epidermidis, methicillin resistant Staphylococcus epidermidis, Enterococcus faecalis, Vancomycin resistant Enterococcus faecalis, Enterococcus faecium, Vancomycin resistant Enterococcus faecium were used.

S. aureus^MS [2] = experiment: MIC by broth microdilution (aerobic pathogens), test strain 1; format: cell-based; settings: Staphylococcus aureus
Protocol: as §1, §2

E. faecalis^LinR = experiment: MIC by broth microdilution (aerobic pathogens), test strain 9; format: cell-based, Linezolid resistant Enterococcus faecalis; settings: Enterococcus faecalis; test strain 9, E. faecalis^LinR (linezolid resistant); read-out: MIC
Protocol: as §1, §2

E. faecalis^VanA = experiment: MIC by broth microdilution (aerobic pathogens), test strain 8; format: cell-based, Vancomycin resistant Enterococcus faecalis; settings: Enterococcus faecalis; test strain 8, E. faecalis^VanA (vancomycin resistant); read-out: MIC
Protocol: as §1, §2

E. faecalis = experiment: MIC by broth microdilution (aerobic pathogens), test strain 7; format: cell-based; settings: Enterococcus faecalis; test strain 7, E. faecalis; read-out: MIC
Protocol: as §1, §2

S. epidermis = experiment: MIC by broth microdilution (aerobic pathogens), test strain 5; format: cell-based; settings: Staphylococcus epidermidis; test strain 5, S. epidermis; read-out: MIC
Protocol: as §1, §2

S. epidermis^MR = experiment: MIC by broth microdilution (aerobic pathogens), test strain 6; format: cell-based, Methicillin resistant Staphylococcus epidermidis; settings: Staphylococcus epidermidis; test strain 6, S. epidermis^MR (methicillin resistant); read-out: MIC
Protocol: as §1, §2

E. faecium^LinR = experiment: MIC by broth microdilution (aerobic pathogens), test strain 12; format: cell-based, Linezolid resistant Enterococcus faecium; settings: Enterococcus faecium; test strain 12, E. faecium^LinR (linezolid resistant); read-out: MIC
Protocol: as §1, §2

C. difficile 173 = experiment: MIC by agar dilution against Clostridioides difficile, test strain 17; format: cell-based; settings: test strain 17, C. difficile 173, anaerobic, agar dilution, read-out: MIC
C. difficile 9689 = experiment: MIC by agar dilution against Clostridioides difficile, test strain 13; format: cell-based; settings: test strain 13, C. difficile 9689, anaerobic, agar dilution, read-out: MIC
C. difficile 174 = experiment: MIC by agar dilution against Clostridioides difficile, test strain 18; format: cell-based; settings: test strain 18, C. difficile 174, anaerobic, agar dilution, read-out: MIC
C. difficile 159 = experiment: MIC by agar dilution against Clostridioides difficile, test strain 15; format: cell-based; settings: test strain 15, C. difficile 159, anaerobic, agar dilution, read-out: MIC
C. difficile 152 = experiment: MIC by agar dilution against Clostridioides difficile, test strain 14; format: cell-based; settings: test strain 14, C. difficile 152, anaerobic, agar dilution, read-out: MIC
C. difficile 181 = experiment: MIC by agar dilution against Clostridioides difficile, test strain 19; format: cell-based; settings: test strain 19, C. difficile 181, anaerobic, agar dilution, read-out: MIC
C. difficile 161 = experiment: MIC by agar dilution against Clostridioides difficile, test strain 16; format: cell-based; settings: test strain 16, C. difficile 161, anaerobic, agar dilution, read-out: MIC
[3] = test strain 2, S. aureus^MS, read-out: MIC
[4] = test strain 1, S. aureus^MS, read-out: MIC

MIC (S. aureus^MS [1]; [3]) | MIC (S. aureus^MS [2]; [4]) | MIC (E. faecalis) | MIC (S. epidermis) | MIC (S. epidermis^MR) | MIC (C. difficile 173) | MIC (C. difficile 9689) | MIC (C. difficile 174) | MIC (C. difficile 152) | MIC (C. difficile 181) | MIC (C. difficile 161) | SMILES | other results
– | – | – | – | – | 0.5 µg/mL (≈ 0.408 µM) | 0.25 µg/mL (≈ 0.204 µM) | 1 µg/mL (≈ 0.816 µM) | 0.25 µg/mL (≈ 0.204 µM) | 0.5 µg/mL (≈ 0.408 µM) | 0.25 µg/mL (≈ 0.204 µM) | C/C=C1\NC(=O)[C@H]([C@@H](C)O)NC(=O)c2csc(n2)-c2ccc(-c3nc(-c4nc(C(=O)NC5(C(=O)NCCn6ccnc6[N+](=O)[O-])CC5)cs4)cs3)nc2-c2csc(n2)[C@H]([C@@H](C)O)NC(=O)c2csc(n2)[C@H](C(C)C)NC(=O)c2csc1n2 [Compound 39] | MIC (C. difficile 159): 1 µg/mL (≈ 0.816 µM)
– | – | – | – | – | 0.5 µg/mL (≈ 0.403 µM) | 0.5 µg/mL (≈ 0.403 µM) | 0.25 µg/mL (≈ 0.202 µM) | 0.25 µg/mL (≈ 0.202 µM) | 1 µg/mL (≈ 0.807 µM) | 0.25 µg/mL (≈ 0.202 µM) | C/C=C(\NC(=O)c1csc(-c2csc(-c3ccc4c(n3)-c3csc(n3)[C@H]([C@@H](C)O)NC(=O)c3csc(n3)[C@H](C(C)C)NC(=O)c3csc(n3)/C(=C/C)NC(=O)[C@H]([C@@H](C)O)NC(=O)c3csc-4n3)n2)n1)C(=O)NCCn1cc([N+](=O)[O-])nc1C [Compound 41] | MIC (C. difficile 159): 0.5 µg/mL (≈ 0.403 µM)
– | – | – | – | – | 0.5 µg/mL (≈ 0.408 µM) | 0.5 µg/mL (≈ 0.408 µM) | 0.5 µg/mL (≈ 0.408 µM) | 0.25 µg/mL (≈ 0.204 µM) | 0.5 µg/mL (≈ 0.408 µM) | 0.25 µg/mL (≈ 0.204 µM) | C/C=C1\NC(=O)[C@H]([C@@H](C)O)NC(=O)c2csc(n2)-c2ccc(-c3nc(-c4nc(C(=O)NC5(C(=O)NCc6ncc([N+](=O)[O-])n6C)CC5)cs4)cs3)nc2-c2csc(n2)[C@H]([C@@H](C)O)NC(=O)c2csc(n2)[C@H](C(C)C)NC(=O)c2csc1n2 [Compound 44] | –

Continued, compound first:

SMILES | MIC (S. aureus^MS [1]; [3]) | MIC (S. aureus^MS [2]; [4]) | MIC (E. faecalis) | MIC (S. epidermis) | MIC (S. epidermis^MR) | MIC (C. difficile 173) | MIC (C. difficile 9689) | MIC (C. difficile 174) | MIC (C. difficile 152) | MIC (C. difficile 181) | MIC (C. difficile 161) | other results
C/C=C1\NC(=O)[C@H]([C@@H](C)O)NC(=O)c2csc(n2)-c2ccc(-c3nc(-c4nc(C(=O)NC5(C(=O)NCCN)CC5)cs4)cs3)nc2-c2csc(n2)[C@H]([C@@H](C)O)NC(=O)c2csc(n2)[C@H](C(C)C)NC(=O)c2csc1n2 [Compound 25] | – | – | – | – | – | – | – | – | – | – | – | MIC (S. aureus^MS [1]): 1 µg/mL (≈ 0.885 µM); MIC (S. aureus^MS [2]): 1 µg/mL (≈ 0.885 µM)
C/C=C1\NC(=O)[C@H]([C@@H](C)O)NC(=O)c2csc(n2)-c2ccc(-c3nc(-c4nc(C(=O)NC5(C(=O)NCCCCCCB(O)O)CC5)cs4)cs3)nc2-c2csc(n2)[C@H]([C@@H](C)O)NC(=O)c2csc(n2)[C@H](C(C)C)NC(=O)c2csc1n2 [Compound 27] | 0.5 µg/mL (≈ 0.412 µM) | 0.25 µg/mL (≈ 0.206 µM) | – | – | – | – | – | – | – | – | – | MIC (E. faecalis^LinR): 0.5 µg/mL (≈ 0.412 µM)
C/C=C1\NC(=O)[C@H]([C@@H](C)O)NC(=O)c2csc(n2)-c2ccc(-c3nc(-c4nc(C(=O)NC5(C(=O)NCCN6CCN(CCCC#N)CC6)CC5)cs4)cs3)nc2-c2csc(n2)[C@H]([C@@H](C)O)NC(=O)c2csc(n2)[C@H](C(C)C)NC(=O)c2csc1n2 [Compound 31] | 1 µg/mL (≈ 0.79 µM) | 0.5 µg/mL (≈ 0.395 µM) | 1 µg/mL (≈ 0.79 µM) | 0.25 µg/mL (≈ 0.198 µM) | 0.5 µg/mL (≈ 0.395 µM) | – | – | – | – | – | – | MIC (E. faecalis^VanA): 1 µg/mL (≈ 0.79 µM)
C/C=C1\NC(=O)[C@H]([C@@H](C)O)NC(=O)c2csc(n2)-c2ccc(-c3nc(-c4nc(C(=O)NC5(C(=O)NCCN6CCN(C7CC7)CC6)CC5)cs4)cs3)nc2-c2csc(n2)[C@H]([C@@H](C)O)NC(=O)c2csc(n2)[C@H](C(C)C)NC(=O)c2csc1n2 [Compound 33] | – | 1 µg/mL (≈ 0.807 µM) | – | 1 µg/mL (≈ 0.807 µM) | 0.5 µg/mL (≈ 0.404 µM) | – | – | – | – | – | – | MIC (E. faecalis^LinR): 0.5 µg/mL (≈ 0.404 µM)
C/C=C(\NC(=O)c1csc(-c2csc(-c3ccc4c(n3)-c3csc(n3)[C@H]([C@@H](C)O)NC(=O)c3csc(n3)[C@H](C(C)C)NC(=O)c3csc(n3)/C(=C/C)NC(=O)[C@H]([C@@H](C)O)NC(=O)c3csc-4n3)n2)n1)C(=O)NCCCN1CCN(C(C)C)CC1 [Compound 34] | 1 µg/mL (≈ 0.797 µM) | 0.5 µg/mL (≈ 0.399 µM) | 1 µg/mL (≈ 0.797 µM) | 0.25 µg/mL (≈ 0.199 µM) | 0.5 µg/mL (≈ 0.399 µM) | – | – | – | – | – | – | MIC (E. faecalis^VanA): 1 µg/mL (≈ 0.797 µM)
C/C=C1\NC(=O)[C@H]([C@@H](C)O)NC(=O)c2csc(n2)-c2ccc(-c3nc(-c4nc(C(=O)NC5(C(=O)NCCN6C(=O)CSC6=O)CC5)cs4)cs3)nc2-c2csc(n2)[C@H]([C@@H](C)O)NC(=O)c2csc(n2)[C@H](C(C)C)NC(=O)c2csc1n2 [Compound 36] | 0.5 µg/mL (≈ 0.407 µM) | 0.25 µg/mL (≈ 0.203 µM) | 0.5 µg/mL (≈ 0.407 µM) | 0.5 µg/mL (≈ 0.407 µM) | 0.5 µg/mL (≈ 0.407 µM) | – | – | – | – | – | – | MIC (E. faecium^LinR): 1 µg/mL (≈ 0.813 µM)

— US12637478B2, “Compound, preparation method thereof, and antibiotic composition comprising same” (priority 2020, dated 2026)
